Test results: patent US12102685B2, “Immodulator peptides covalently modified with small molecules” (priority 2020, dated 2024)
Peptide text beside a SMILES is read from it.

Tests used:
[1] = Iron-binding competition assay with labeled IM3 (x2E c); details: 375 ng/well labeled IM3 plus 10x unlabeled peptide; no competing peptide = 100
Method: (§1) Experiments were conducted by the procedure described above. Ferric iron-charged NTA-coated 96-well plates were used as described. 1 ug/well immodulator peptide complexed to Alexa-488-labeled streptavidin in PBS buffer was added (60 min at room temperature). The plate was washed and counted in a standard fluorometer (excitation/emission: 485/525 nm). The results (fluorescence) show improved iron-binding by the three peptides extended C-terminally by the AVD, (dA)VD, and FVS tripeptides. **p<0.01 vs IM3 control IM3: 200±29; IM4: 45±37**; IM5: 130±77; IM3AVD: 434±29**; IM3dAVD: 418±28**; IM3FVS: 371±33** • (c) Competition assay. The same procedure was used as the preceding experiment, except that 375 ng/well labeled IM3 peptide was used, plus 10× of the indicated unlabeled peptide. ‘No competing peptide’ control value was set to 100. *p<0.05 vs “no peptide” control Competing Peptide/Fluorescence • None: 100±38; IM4: 125±26; IM3: 63±27*; IM5: 40±14*; IM3AVD: 10±28* • (d) Competition assay. The same procedure was used as the preceding experiment, except that labeled IM3AVD peptide was used. **p<0.01 vs “no competing peptide” control • None: 100±9; IM4: 144±44; IM3: 35±16**; IM5: 30±19**; IM3AVD: 9±19** • (e) The same procedure was used as the preceding experiment, except that each peptide was labeled with Alexa-488-labeled streptavidin in PBS buffer and used separately. Binding to IM3 was set to =100. *p<0.05, **p<0.01 vs IM3 control. (Labeled Peptide/Fluorescence) IM1: 1.8±0.4**; IM2: 3.0±1.8**; IM3: 100.0±16.8; IM4: 7.2±1.7*; IM5: 86.7±6.4; IM6: 85.9±14.9; IM3AVD:137.7±11.8*; IM3dAVD:147.4±22.9*; IM3FVS: 101.5±10.5.

[2] = Iron-binding competition assay with labeled IM3AVD (x2E d); details: labeled IM3AVD plus 10x unlabeled peptide; no competing peptide = 100
Method: as §1

[3] = target: T1, AA111-228 DNA-binding domain of RXR-alpha (RXRa-DBD) (Homo sapiens, UniProt P19793); experiment: Binding to RXRa-DBD (x3A); details: 1 ug/well RXRa-DBD, 800 ng/well SA488-labelled peptide; background subtracted
T1 construct: purchased Abcam, Cambridge, MA
T1 sequence (P19793 111-228): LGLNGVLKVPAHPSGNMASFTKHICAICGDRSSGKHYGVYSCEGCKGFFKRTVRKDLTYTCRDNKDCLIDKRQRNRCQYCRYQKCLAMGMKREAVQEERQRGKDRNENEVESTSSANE
Method: Binding of immodulator peptides to AA111-228 DNA-binding domain of RXR-alpha (RXRa-DBD). 1 ug/well recombinant RXRa-DBD (Abcam, Cambridge, MA) was adsorbed to wells of a 96-well plate for 60 minutes at RT, then blocked with 200 uL 1% BSA in PBS buffer overnight. Plate was washed and 800 ng/well Streptavidin-Alexa 488 conjugate (SA488)-labelled IM peptide was added. The plate was incubated for 60 min at room temperature, washed and counted in a standard fluorometer (excitation/emission 485/525 nm). Background (buffer alone) was subtracted.

[4] = Binding to heparin-agarose spin column (x3D); details: 1 ug SA488-labelled peptide
Method: 1 ug Streptavidin-Alexa 488 conjugate (SA488)-labelled IM peptide in PBS buffer was loaded on a spin column packed with 0.2 ml bed volume heparin-agarose (G-Biosciences, St. Louis, MO). The column was centrifuged for 2 min at 2,000 G and the flow-through was collected. The column was then washed with 0.3 ml 1% BSA in PBS buffer and the column spin repeated. Flowthrough and wash were pooled and duplicate 20 uL aliquots counted in a standard fluorometer (excitation/emission 485/525 nm). Results are expressed as percentage of input counts that bound the heparin-agarose column, versus flowthrough. Percent counts bound to heparin-agarose resin are shown below. IM3, IM5 and IM6 peptides bind heparin-agarose in this assay.

[5] = FITC-PI(4,5)P2 binding to plate-bound peptide with calcium (x9A)
Method: Immodulator peptides IM1, IM3 and IM5 (400 ng/well) in PBS were bound to streptavidin-coated 96-well plates at room temperature for 60 minutes, in the presence or absence of 500 uM calcium chloride. Each well also received 200 ng cold PPI plus 10 ng FITC-labeled PI(4,5)P2 or PI(4)P1. The tables below show the relative fluorescence (with/without calcium background) expressed as a percentage of the highest binder, FITC-PI(4,5)P2+cold PI(3,5)P2, which was 2,496 fluorescence units. Background binding without calcium was, in all cases, 200-300 fluorescence units.

[6] = tested on: COL1 in HFF-1 dermal fibroblasts; experiment: Collagen-1 ELISA in HFF-1 dermal fibroblasts (x11A); type: cell-based; details: peptide 2 uM, 72 hour; control (buffer) = 100

fluorescence of labeled IM3 with competing peptide [1]: 40±14 | fluorescence of labeled IM3AVD with competing peptide [2]: 30±19 | fluorescence [3]: 6,802±336 | Percent Flowthrough [4]: 3.6% | Percent retained [4]: 96.4% | relative fluorescence, FITC-PI(4,5)P2 bound ([5]; cold PPI: 3,4,5-P3, calcium): 0.2 percentage of the highest binder | relative fluorescence, FITC-PI(4,5)P2 bound ([5]; cold PPI: 3,4-P2, calcium): 12.3 percentage of the highest binder | relative fluorescence, FITC-PI(4,5)P2 bound ([5]; cold PPI: 3,5-P2, calcium): 16.9 percentage of the highest binder | relative fluorescence, FITC-PI(4,5)P2 bound ([5]; cold PPI: 3-P1, calcium): 0.3 percentage of the highest binder | relative fluorescence, FITC-PI(4,5)P2 bound ([5]; cold PPI: 4,5-P2, calcium): 7.6 percentage of the highest binder | relative fluorescence, FITC-PI(4,5)P2 bound ([5]; cold PPI: 4-P1, calcium): 2.3 percentage of the highest binder | relative fluorescence, FITC-PI(4,5)P2 bound ([5]; cold PPI: 5-P1, calcium): 2.7 percentage of the highest binder | relative fluorescence, FITC-PI(4,5)P2 bound ([5]; cold PPI: None, 500 uM calcium chloride): 2.6 percentage of the highest binder
Structure (SMILES): CC[C@H](C)[C@H](NC(=O)CNC(=O)[C@H](CCCNC(=N)N)NC(=O)[C@H](CCCCN)NC(=O)[C@H](CCCNC(=N)N)NC(=O)CNC(=O)[C@H](CCCNC(=N)N)NC(=O)[C@H](CO)NC(=O)[C@@H]1CCCN1C(=O)[C@H](CCCCN)NC(=O)[C@H](CS)NC(=O)[C@H](CCC(N)=O)NC(=O)[C@H](CCCCN)NC(=O)[C@H](CCCNC(=N)N)NC(=O)[C@H](CCCCN)NC(=O)[C@H](Cc1ccc(O)cc1)NC(=O)[C@H](Cc1ccccc1)NC(=O)CNC(=O)[C@H](CCCCN)NC(=O)[C@@H](N)CCCNC(=N)N)C(=O)N[C@@H](CS)C(=O)N[C@@H](Cc1c[nH]c2ccccc12)C(=O)O [IM5] (H-RKGFYKRKQCKPSRGRKRGICW-OH; N-terminus and C-terminus assumed)
COL1 immunoreactivity in supernatant [6]: 93
